Data: patent publication US20250066366A1, “Crystal form of isobutyrate nucleoside compound, and preparation method” (Shenzhen AntiV Pharma Co., Ltd., priority 2021, published 2025)
≈ marks a conversion by molar mass, not a printed value. Like-named read-outs stand apart in the source and are kept apart here. Marks after values point to notes of the source that are not given here.

Experiments:
Type in all cases: physicochemical
[1] = Dynamic water vapor adsorption detection of crystalline form III
[2] = Grinding experiment of crystalline form III (XRPD after manual grinding); settings: ground manually with mortar and pestle for 5 minutes
Text: (§1) X-ray powder diffraction patterns were collected on a PANalytical Empyrean X-ray diffractometer of the Netherlands equipped with a transmission-reflection sample stage with an automated 3*15 zero background sample holder. The radiation source used was (Cu, kα, Kα1 (Å): 1.540598; Kα2 (Å): 1.544426; Kα2/Kα1 intensity ratio: 0.50), wherein the voltage was set at 45 KV and the current was set at 40 mA. The beam divergence of the X-rays, i.e. the effective size of the X-ray confinement on the sample, was 6.6 mm. The continuous scanning mode of θ-θ was adopted, and an effective 2θ range of 3° to 40° was obtained. A proper amount of sample was placed at the position of the circular groove of the zero-background sample rack under the environmental condition (about 18° C. to 32° C.), the sample was lightly pressed with a clean glass slide to obtain a flat plane, and the zero-background sample rack was fixed. The samples were scanned at a scan step of 0.013° in the range of 3° to 40° 2θ±0.2° to obtain a traditional X-ray powder diffraction pattern.
Crystalline form III was ground manually with a mortar and pestle for 5 minutes, and XRPD of the ground solid was tested.

[3] = Solubility test in biological media (SGF, FaSSIF, FeSSIF) and water at 37° C.; settings: for pH (24 h): solution pH after 24 h; for solubility at 0.5 h: read-out: Solubility (mg/mL) 0.5 h; for solubility at 2 h: read-out: Solubility (mg/mL) 2 h; for solubility at 24 h: read-out: Solubility (mg/mL) 24 h
Method: Crystalline form III has the highest solubility in SGF (>7 mg/mL). The solubility in pure water, FeSSIF, and FaSSIF were all greater than 1 mg/mL.

[4] = Solid state stability test (XRPD and HPLC); settings: for Purity-1 week (Peak area %): HPLC, initial purity 99.71%; for Crystal-1 week: XRPD
Text: as §1
The instrument used for liquid chromatography analysis is Agilent HPLC 1260 series, which is used for the analysis of solid-state stability of samples.
A certain amount of crystalline form III of compound A as a sample was placed under conditions of 40° C./75% RH (open) and 60° C. (closed) for one week, and XRPD and HPLC of the sample were tested.

CC(C)C(=O)OC[C@H]1O[C@@](C#N)(c2ccc3c(N)ncnn23)[C@H](O)[C@@H]1O [crystalline form III, ((2R,3S,4R,5R)-5-(4-aminopyrrolo[2,1-f][1,2,4]triazin-7-yl)-5-cyano-3,4-dihydroxytetrahydrofuran-2-yl) methyl isobutyrate]
weight gain ([1]; 80% RH and 25° C.): less than 0.2%
crystalline form after testing ([1]; after dynamic water vapor adsorption test): did not change
hygroscopicity ([1]; dynamic water vapor adsorption test): does not have hygroscopicity
crystalline structure after grinding (XRPD) [2]: did not change
pH (24 h) ([3]; FaSSIF (pH = 6.53)): 6.50
pH (24 h) ([3]; FeSSIF (pH = 4.97)): 4.96
Solubility (mg/mL) ([3]; SGF (pH = 1.20), 0.5 h, 2 h, 24 h, visual observation): >7* mg/mL
pH (24 h) ([3]; SGF (pH = 1.20)): 1.37
change in solution pH after the solubility test ([3]; SGF, FaSSIF, FeSSIF and water): no significant change
pH (24 h) ([3]; Water (pH = 6.67)): 6.43
solubility ([3]; pH 1.2, simulated gastric fluid, thermodynamic from solid, SGF (pH = 1.20), 0.5 h, 2 h, 24 h, visual observation): > 7000 µg/mL
solubility ([3]; pH 4.97, thermodynamic from solid, FeSSIF): > 1000 µg/mL
solubility ([3]; pH 6.53, thermodynamic from solid, FaSSIF): > 1000 µg/mL
solubility ([3]; pH 6.67, thermodynamic from solid, pure water): > 1000 µg/mL
XRPD (24 h) ([3]; solid after 24 h in FaSSIF (pH = 6.53)): Crystalline
XRPD (24 h) ([3]; solid after 24 h in FeSSIF (pH = 4.97)): Crystalline
XRPD (24 h) ([3]; solid after 24 h in Water (pH = 6.67)): Crystalline
solubility at 0.5 h ([3]; thermodynamic from solid, FaSSIF (pH = 6.53), 0.5 h): 1.22 mg/mL (≈ 3.38 mM)
solubility at 2 h ([3]; thermodynamic from solid, FaSSIF (pH = 6.53), 2 h): 1.26 mg/mL (≈ 3.49 mM)
solubility at 24 h ([3]; thermodynamic from solid, FaSSIF (pH = 6.53), 24 h): 1.19 mg/mL (≈ 3.29 mM)
solubility at 0.5 h ([3]; thermodynamic from solid, FeSSIF (pH = 4.97), 0.5 h): 1.63 mg/mL (≈ 4.51 mM)
solubility at 2 h ([3]; thermodynamic from solid, FeSSIF (pH = 4.97), 2 h): 1.66 mg/mL (≈ 4.59 mM)
solubility at 24 h ([3]; thermodynamic from solid, FeSSIF (pH = 4.97), 24 h): 1.68 mg/mL (≈ 4.65 mM)
solubility at 0.5 h ([3]; thermodynamic from solid, Water (pH = 6.67), 0.5 h): 1.11 mg/mL (≈ 3.07 mM)
solubility at 2 h ([3]; thermodynamic from solid, Water (pH = 6.67), 2 h): 1.22 mg/mL (≈ 3.38 mM)
solubility at 24 h ([3]; thermodynamic from solid, Water (pH = 6.67), 24 h): 1.24 mg/mL (≈ 3.43 mM)
Purity-1 week (Peak area %) ([4]; 40° C./75% RH, open, listed as Sample 1): 99.68%
Purity-1 week (Peak area %) ([4]; 40° C./75% RH, open, listed as Sample 2): 99.71%
Crystal-1 week ([4]; 40° C./75% RH, open): No change
Purity-1 week (Peak area %) ([4]; 60° C. & closed, listed as Sample 1): 99.71%
Purity-1 week (Peak area %) ([4]; 60° C. & closed, listed as Sample 2): 99.65%
Crystal-1 week ([4]; 60° C. & closed): No change
physical and chemical stability ([4]; two acceleration conditions (40° C./75% RH open, 60° C. closed) for 14 days): physically and chemically stable
